Marks after values point to notes of the source that are not given here.
Legend:
[1] = system: CPA-CLP sepsis mouse model; test: Effects of LPC, LPC isomers, Xigris and DW286aa on mortalities/survivabilities in CPA-CLP sepsis mouse model (SEP009); single i.v. 6 hrs after CLP; type: in vivo; settings: LPC, LPC18:0, LPC18:1, LPA 5 mpk, Xigris 0.4 mpk, DW286aa 10 mpk
Procedure: (§1) CPA is well known as an immunosuppressive agent. […] Then, the abdomen was closed following the general procedure.
(§2) Then, body weight and mortality changes were observed.
In the Sham and CLP control groups, 10 ml/kg of only sterile physiological saline was single intravenously dosed.

[2] = system: CPA-CLP sepsis mouse model; test: Combination effects of LPC and antibiotics (colistin, tobramycin, fusidin) in CPA-CLP sepsis mouse model (SEP013); single i.v. 6 hrs after CLP; type: in vivo, ICR mice; settings: mpk: LPC 5, DW286aa 5, Colistin 5, Tobra 4, Fusidin 80, LPC + Colistin 5 + 5, LPC + Tobra 5 + 4, LPC + Fusidin 5 + 80
From the text: as §1, §2

[3] = system: blood WBC; test: Blood WBC numbers and differential counts in CPA-treated mice; type: in vivo, ICR mice; settings: LPC 1, DW286 0.5, Mix 0.75 mg/kg
Procedure: Blood were collected at sacrifice of CPA-treated model from vena cava and total blood leukocyte numbers were calculated using counting chamber, diluting pipette and Türk solution as dilution solution. All numbers were calculated as ×10^3/mm^3. In addition, cell numbers of lymphocytes, eosinophils, neutrophils, monocytes and basophils were calculated among 100 total leukocytes in smear blood samples stained with Giemsa.

[4] = Body weight of CPA-CLP mice (Example 9); settings: LPC 1, DW286 0.5, Mix 0.75 mg/kg
Procedure: (§3) In CPA-CLP model, body weight and mortalities were measured once a day for 5 days with automatic electronic balances (Sartorius Co., Ltd., USA), once a day for 2 days in CPA-treated model. All animals were overnight fasted at CPA dosing, CLP or initial dosing to reduce differences from feeding. In addition, body weight gains were calculated as follows:
CPA-CLP Model: Body weight at sacrifice—at CLP(5 days)
Then, mortalities, changes in thymus and spleen weights, changes in white blood cell (WBC) number, and changes in thymic and splenic CD3+, CD4+, CD8+, and TNF-α+ cell numbers, were evaluated together with changes in bone marrow polychromatic erythrocytes contain micronuclei (MNPCE) number.
(§4) Appropriate doses of candidate materials were dissolved in 5% human serum albumin, and subcutaneously dosed at 10 ml/kg (of body weight), 4 times 12-hr intervals from 6 hrs after CLP or 24 hrs after last CPA-dosing, respectively. In the INTACT, CPA, or CPA-CLP control groups, an equal volume of 5% human serum albumin was dosed by the same procedure.

[5] = system: bone marrow polychromatic erythrocytes; test: Bone marrow MNPCE and PCE/(PCE+NCE) in CPA-treated mice; settings: LPC 1, DW286 0.5, Mix 0.75 mg/kg
Procedure: (§5) In Intact control animals, equal volume of saline was only dosed instead of CPA with same methods.
In brief, bone marrow cells were collected from aforementioned femur in 3 ml of inactivated fetal bovine serum (GIBCO BRL, USA), centrifuged, and smeared on slide. Preparations were dried, and fixed by submerging in absolute methanol (for 10˜20 min). Fixed slides were stained as follow:
Slides were randomly coded and examined under×1000 magnification by two different experts. Small round or oval shaped bodies, size of which ranging about ⅕ to 1/20 of diameter of PCE, were counted as micronuclei. Attention was given to discriminate micronuclei from artifacts. Results were expressed as the number of MNPCEs in 1000 PCEs. Mean number of MNPCE±S.D. was calculated for each treatment group.
as §4

[6] = Body weight of CPA-treated mice (Example 9); s.c. 4 times 12-hr intervals from 24 hrs after last CPA-dosing; settings: LPC 1, DW286 0.5, Mix 0.75 mg/kg
Procedure: In the INTACT control group, an equal volume of physiological saline was dosed instead of CPA by the same method.
as §5, §3
CPA-Treat Model: Body weight at sacrifice—at initial dosing (2 days)
To find suitable dosing regime of LPC and DW286AA combination during the development of new therapeutic agents against sepsis, evaluation was conducted by using CPA-CLP— and CPA-induced immunosuppressive mice. […] Then, mortalities, changes in thymus and spleen weights, changes in white blood cell (WBC) number, and changes in thymic and splenic CD3+, CD4+, CD8+, and TNF-α+ cell numbers, were evaluated together with changes in bone marrow polychromatic erythrocytes contain micronuclei (MNPCE) number.
as §4

[7] = At First CPA dosing (overnight fasted)

Lysophosphatidylcholine [LPC]
Mortalities ([1]; 1st CPA treat): 0
survivabilities ([1]; 1st CPA treat): 100%
Mortalities ([1]; 2nd CPA treat): 0
survivabilities ([1]; 2nd CPA treat): 100%
Mortalities ([1]; At CLP (day 0)): 0
survivabilities ([1]; At CLP (day 0)): 100%
Mortalities ([1]; Day 1): 1
survivabilities ([1]; Day 1): 90%
Mortalities ([1]; Day 2): 3
survivabilities ([1]; Day 2): 60%
Mortalities ([1]; Day 3): 1
survivabilities ([1]; Day 3): 50%
Mortalities ([1]; Day 4): 1
survivabilities ([1]; Day 4): 40%
Mortalities ([1]; Day 5): 2
survivabilities ([1]; Day 5): 20%
Mortalities ([1]; Day 6): 0
survivabilities ([1]; Day 6): 20%
Mortalities ([1]; Day 7): 1
survivabilities ([1]; Day 7): 10%
Mortalities ([1]; Day 8): 1
survivabilities ([1]; Day 8): 0%
Mortalities ([1]; Day 9): 0
survivabilities ([1]; Day 9): 0%
Mortalities ([1]; Day 10): 0
survivabilities ([1]; Day 10): 0%
Mortalities ([1]; Total): 10
survivabilities ([1]; Total): 0%
Mortalities ([2]; 1st CPA treat): 0
Survivalities ([2]; 1st CPA treat): 100%
Mortalities ([2]; 2nd CPA treat): 0
Survivalities ([2]; 2nd CPA treat): 100%
Mortalities ([2]; At CLP (day 0)): 0
Survivalities ([2]; At CLP (day 0)): 100%
Mortalities ([2]; Day 1): 2
Survivalities ([2]; Day 1): 80%
Mortalities ([2]; Day 2): 5
Survivalities ([2]; Day 2): 30%
Mortalities ([2]; Day 3): 2
Survivalities ([2]; Day 3): 10%
Mortalities ([2]; Total): 9
Survivalities ([2]; Total): 10%
blood total WBC numbers, change compared to CPA control [3]: 25.00%
ratio of lymphocytes, change compared to CPA control [3]: 268.78%
ratio of monocytes, change compared to CPA control [3]: −85.27%
ratio of neutrophils, change compared to CPA control [3]: −51.07%
Total WBC ([3]; blood at sacrifice): 0.58 ± 0.14 ×10^3/mm^3
WBC differentials: Basophils ([3]; blood at sacrifice): 2.33 ± 1.22*^,## %
WBC differentials: Eosinophils ([3]; blood at sacrifice): 1.33 ± 1.12 %
WBC differentials: Lymphocytes ([3]; blood at sacrifice): 70.22 ± 9.90 %
WBC differentials: Monocytes ([3]; blood at sacrifice): 5.56 ± 3.13 %
WBC differentials: Neutrophils ([3]; blood at sacrifice): 20.56 ± 8.76 %
Body weight ([4]; 1 day after CLP): 30.10 ± 1.23 g
Body weight ([4]; 2 days after CLP): 29.47 ± 1.46 g
Body weight ([4]; 3 days after CLP): 31.40 ± 0.28 g
Body weight ([4]; At CLP (overnight fasted)): 32.98 ± 1.65 g
Body weight [4, 7]: 34.53 ± 1.24 g
MNPCE numbers, change compared to CPA control [5]: −14.34%
PCE/(PCE+NCE), change compared to CPA control [5]: −12.98%
NCE ([5]; among 500 erythrocytes): 377.11 ± 22.32
PCE ([5]; among 500 erythrocytes): 122.89 ± 22.32
PCE/(NCE + PCE) ([5]; among 500 erythrocytes): 0.25 ± 0.04
% MNPCE ([5]; among 1000 PCEs): 2.46 ± 0.75 %
Body weight ([6]; 1 day after second CPA-dosing): 36.54 ± 1.72 g
Body weight ([6]; 2 days after second CPA-dosing): 37.04 ± 1.47 g
Body weight ([6]; At Dosing (overnight fasted)): 32.08 ± 1.47 g
Body weight [6, 7]: 36.58 ± 1.36 g
Body weight gains during 2 days after dosing [6]: 4.97 ± 1.67 g
body weight (gains) change compared to the CPA control group [6]: −12.35%

From patent US9446061B2, “Composition containing antibiotics and lysophosphatidylcholine for boosting immunity or treatment of bacterial infections” (priority 2011, dated 2016)
